Test results published in PubChem BioAssay (NCI).
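A five-concentration, 48-hour dose response in 96-well plates underlies each endpoint, interpolated linearly between surrounding concentrations. TGI denotes the concentration required for complete inhibition of growth.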

What was measured:
Assay in all cases: growth of human tumour cells (NCI), 48 h
SNB-78 CNS = system: SNB-78 CNS
NCI-H23 lung = system: NCI-H23 lung
CAKI-1 renal = system: CAKI-1 renal
U251 CNS = system: U251 CNS
SK-MEL-28 melanoma = system: SK-MEL-28 melanoma
HCT-116 colon = system: HCT-116 colon
OVCAR-8 ovarian = system: OVCAR-8 ovarian
KM20L2 colon = system: KM20L2 colon
LOX IMVI melanoma = system: LOX IMVI melanoma
COLO 205 colon = system: COLO 205 colon
UACC-62 melanoma = system: UACC-62 melanoma
A549 NSCLC = system: A549 NSCLC
HT29 colon = system: HT29 colon
DLD-1 colon = system: DLD-1 colon
XF 498 CNS = system: XF 498 CNS
786-0 renal = system: 786-0 renal
TK-10 renal = system: TK-10 renal
IGROV1 ovarian = system: IGROV1 ovarian
M19-MEL melanoma = system: M19-MEL melanoma
SK-MEL-2 melanoma = system: SK-MEL-2 melanoma
OVCAR-5 ovarian = system: OVCAR-5 ovarian
EKVX NSCLC = system: EKVX NSCLC
HL-60(TB) leukemia = system: HL-60(TB) leukemia
LXFL 529 NSCLC = system: LXFL 529 NSCLC
HOP-62 NSCLC = system: HOP-62 NSCLC
SW-620 colon = system: SW-620 colon
SF-268 CNS = system: SF-268 CNS
K-562 leukemia = system: K-562 leukemia
NCI-H460 lung = system: NCI-H460 lung
SR leukemia = system: SR leukemia
SF-295 CNS = system: SF-295 CNS
UO-31 renal = system: UO-31 renal
HCT-15 colon = system: HCT-15 colon
SK-OV-3 ovarian = system: SK-OV-3 ovarian
OVCAR-3 ovarian = system: OVCAR-3 ovarian
NCI-H226 lung = system: NCI-H226 lung
MOLT-4 leukemia = system: MOLT-4 leukemia
SF-539 CNS = system: SF-539 CNS
DMS 273 small cell lung = system: DMS 273 small cell lung
CCRF-CEM leukemia = system: CCRF-CEM leukemia
ACHN renal = system: ACHN renal
M14 melanoma = system: M14 melanoma
OVCAR-4 ovarian = system: OVCAR-4 ovarian
KM12 colon = system: KM12 colon
SN12C renal = system: SN12C renal
SK-MEL-5 melanoma = system: SK-MEL-5 melanoma
UACC-257 melanoma = system: UACC-257 melanoma
RPMI-8226 leukemia = system: RPMI-8226 leukemia
HOP-92 NSCLC = system: HOP-92 NSCLC
NCI-H522 lung = system: NCI-H522 lung
SNB-75 CNS = system: SNB-75 CNS
MALME-3M melanoma = system: MALME-3M melanoma
SNB-19 CNS = system: SNB-19 CNS
DMS 114 small cell lung = system: DMS 114 small cell lung
HOP-18 NSCLC = system: HOP-18 NSCLC
HCC-2998 colon = system: HCC-2998 colon
A498 renal = system: A498 renal

Measured: TGI

O=C(O)COc1ccccc1C(=O)Nc1ccccc1
not listed: DMS 114 small cell lung | HOP-18 NSCLC | HCC-2998 colon | A498 renal
> 100 µM: all other assays above

On1c(-c2ccccc2)c(-c2ccccc2N2CCCC2)c2ccccc21
not listed: LXFL 529 NSCLC | UO-31 renal
> 100 µM: all other assays above
